Measurements taken from US8436024B2, “2-pyridone compounds” (Astrazeneca AB, priority 2009, dated 2013).

Key:
[1] = target: T1, Human Neutrophil Elastase (HNE) (Homo sapiens, UniProt P08246); assay: Human Neutrophil Elastase Quenched-FRET Assay; type: biochemical; details: geomean of measured IC50 values; HNE 0.17 nM, substrate MeOSuc-AAPV-AMC 100 μM, 90 min at room temperature; read-out: Inhibition of Human Neutrophil Elastase IC50
T1 sequence (P08246 30-267): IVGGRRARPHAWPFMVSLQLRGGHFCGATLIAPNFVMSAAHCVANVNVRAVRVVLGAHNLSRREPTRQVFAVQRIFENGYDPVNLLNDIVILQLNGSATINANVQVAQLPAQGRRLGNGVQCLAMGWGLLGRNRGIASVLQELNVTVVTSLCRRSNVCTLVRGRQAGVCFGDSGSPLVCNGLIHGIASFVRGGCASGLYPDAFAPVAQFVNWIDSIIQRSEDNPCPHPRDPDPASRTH
Experimental: Human Neutrophil Elastase Quenched-FRET Assay The assay uses Human Neutrophil Elastase (HNE) purified from serum (Calbiochem art. 324681; Ref Baugh, R. J. et al., 1976, Biochemistry. 15, 836-841). HNE was stored in 50 mM sodium acetate (NaOAc), 500 mM sodium chloride (NaCl), pH 5.5 with added 50% glycerol at −20° C. The protease substrate used was Elastase Substrate V Fluorogenic, MeOSuc-AAPV-AMC (Calbiochem art. 324740; Ref Castillo, M. J. et al., 1979, Anal. Biochem. 99, 53-64). The substrate was stored in dimethyl sulphoxide (DMSO) at −20° C. The assay additions were as follows: Test compounds and controls were added to black 384-well flat-bottom plates (Greiner 781076), 0.2 μL in 100% DMSO, followed by 10 μL HNE in assay buffer with 0.01% Triton (trade mark) X-100 detergent. The assay buffer constitution was: 100 mM Tris(hydroxymethyl)aminomethane (TRIS) (pH 7.5) and 500 mM NaCl. The enzyme and the compounds were incubated at room temperature for 15 minutes. Then 10 μL substrate in assay buffer was added. The assay was incubated for 90 minutes at room temperature. The concentrations of HNE enzyme and substrate during the incubation were 0.17 nM and 100 μM, respectively. The assay was then stopped by adding 20 μl stop solution (140 mM acetic acid, 200 mM sodium monochloroacetate, 60 mM sodium acetate, pH 4.3). Fluorescence was measured on a Wallac EnVision 2102 Multilabel Reader instrument at settings: Excitation 380 nm, Emission 460 nm. IC50 values were determined using Xlfit curve fitting using model 203. […] Specimen results are shown in the following Table in which the IC50 value represents the geomean of the IC50 values measured for a particular compound and “n” refers to the number of times the compound was tested: […]

[2] = Humidity interaction (hygroscopicity determination) by Gravimetrical Vapour Sorption; type: physicochemical; details: for hygroscopicity: relative change in weight between 0% RH and 80% RH, second cycle, benzenesulfonate
Experimental: Run time was 6.2 minutes; post time was 2.3 min; and detection was at 235 nm. • (v) In general, the course of reactions was followed by TLC and reaction times are given for illustration only. • (vi) Yields are given for illustration only and are not necessarily those which can be obtained by diligent process development; preparations were repeated if more material was required. • (vii) Chemical symbols have their usual meanings; SI units and symbols are used. • (viii) Solvent ratios are given in volume: volume (v/v) terms. • (ix) Mass spectra (MS) (loop) were recorded on a Micromass Platform LC equipped with HP 1100 detector; unless otherwise stated the mass ion quoted is (MH^+). • (x) X-ray Powder Diffraction patterns were collected on a PANalytical X′Pert PRO MPD theta-theta system, equipped with a focusing beam Johansson monochromator and an X′Celerator detector, using CuKα1 radiation (1.5406 Å, 45 kV, 40 mA). The diffraction pattern was collected between 2 and 40 °2θ in a continuous scan mode. The scan speed was 0.86°/min. with an increment of 0.016°. Samples were mounted on single silicon crystal wafer mounts. • (xi) Humidity Interaction (hygroscopicity determination): The gravimetric responses of test samples to changes in humidity were investigated using a TGA 5000 (TA Instruments) Gravimetrical Vapour Sorption (GVS). The relative humidity (RH) was raised in steps of 10% to 90% RH and lowered back to 0% RH in two cycles. Each level of RH was held until the equilibrium condition (sample weight change<0.005 wt % per 10 minutes) was reached. 3-5 mg of the test sample was placed in the cup and evaluated. The hygroscopicity was calculated as the relative change in weight of the sample between 0% RH at the start of the second cycle and 80% RH during the increase of humidity in the second cycle. […]

IC50 [1] | also measured | SMILES
971 pM |  | Cc1c(-c2ccnn2-c2ccc(C#N)cc2)cc(C(=O)NCCC[N+]2(C)CCCC2)c(=O)n1-c1cccc(C(F)(F)F)c1 [Example 5, 1-{3-[({5-[1-(4-cyanophenyl)-1H-pyrazol-5-yl]-6-methyl-2-oxo-1-[3-(trifluoromethyl)phenyl]-1,2-dihydropyridin-3-yl}carbonyl)amino]propyl}-1-methylpyrrolidinium iodide]
 | hygroscopicity (in words) ([2]; description of the crystalline modification): low hygroscopicity; hygroscopicity ([2]; listed as Form B): 0.4 % (w/w) | Cc1c(-c2ccnn2-c2ccc(C#N)cc2)cc(C(=O)NCCC[N+](C)(C)C)c(=O)n1-c1cccc(C(F)(F)F)c1.O=S(=O)([O-])c1ccccc1 [Example 10, 3-(5-(1-(4-cyanophenyl)-1H-pyrazol-5-yl)-6-methyl-2-oxo-1-(3-(trifluoromethyl)phenyl)-1,2-dihydropyridine-3-carboxamido)-N,N,N-trimethylpropan-1-aminium benzenesulfonate]
3480 pM |  | Cc1c(-c2ccnn2-c2ccc(C#N)cc2)nc(C(=O)NCCC[N+](C)(C)C)c(=O)n1-c1cccc(C(F)(F)F)c1 [Example 6, 3-[({6-[1-(4-cyanophenyl)-1H-pyrazol-5-yl]-5-methyl-3-oxo-4-[3-(trifluoromethyl)phenyl]-3,4-dihydropyrazin-2-yl}carbonyl)amino]-N,N,N-trimethylpropan-1-aminium iodide]
949 pM |  | Cc1c(-c2ccnn2-c2ccc(C#N)cc2)cc(C(=O)NCC[N+]2(C)CCCC2)c(=O)n1-c1cccc(C(F)(F)F)c1 [Example 1, 1-{2-[({5-[1-(4-cyanophenyl)-1H-pyrazol-5-yl]-6-methyl-2-oxo-1-[3-(trifluoromethyl)phenyl]-1,2-dihydropyridin-3-yl}carbonyl)amino]ethyl}-1-methylpyrrolidinium acetate]
1100 pM |  | Cc1c(-c2ccnn2-c2ccc(C#N)cc2)cc(C(=O)NCCC[N+](C)(C)C)c(=O)n1-c1cccc(C(F)(F)F)c1 [Example 9a, 3-(5-(1-(4-cyanophenyl)-1H-pyrazol-5-yl)-6-methyl-2-oxo-1-(3-(trifluoromethyl)phenyl)-1,2-dihydropyridine-3-carboxamido)-N,N,N-trimethylpropan-1-aminium benzenesulfonate]
934 pM |  | Cc1c(-c2ccnn2-c2ccc(C#N)cc2)cc(C(=O)NCCCC[N+](C)(C)C)c(=O)n1-c1cccc(C(F)(F)F)c1 [Example 4, 4-[({5-[1-(4-cyanophenyl)-1H-pyrazol-5-yl]-6-methyl-2-oxo-1-[3-(trifluoromethyl)phenyl]-1,2-dihydropyridin-3-yl}carbonyl)amino]-N,N,N-trimethylbutan-1-aminium iodide]
570 pM |  | Cc1c(-c2ccnn2-c2ccc(C#N)cc2)cc(C(=O)NCCC[N+](C)(C)C)c(=O)n1-c1cccc(C(F)(F)F)c1 [Example 7, 3-(5-(1-(4-cyanophenyl)-1H-pyrazol-5-yl)-6-methyl-2-oxo-1-(3-(trifluoromethyl)phenyl)-1,2-dihydropyridine-3-carboxamido)-N,N,N-trimethylpropan-1-aminium bromide]
 | hygroscopicity ([2]; listed as Form A): 0.8 % (w/w) | Cc1c(-c2ccnn2-c2ccc(C#N)cc2)cc(C(=O)NCCC[N+](C)(C)C)c(=O)n1-c1cccc(C(F)(F)F)c1.O=S(=O)([O-])c1ccccc1 [Example 9, 3-(5-(1-(4-cyanophenyl)-1H-pyrazol-5-yl)-6-methyl-2-oxo-1-(3-(trifluoromethyl)phenyl)-1,2-dihydropyridine-3-carboxamido)-N,N,N-trimethylpropan-1-aminium benzenesulfonate]
1050 pM |  | Cc1c(-c2ccnn2-c2ccc(C#N)cc2)cc(C(=O)NCC[N+](C)(C)C)c(=O)n1-c1cccc(C(F)(F)F)c1 [Example 3, 2-[({5-[1-(4-cyanophenyl)-1H-pyrazol-5-yl]-6-methyl-2-oxo-1-[3-(trifluoromethyl)phenyl]-1,2-dihydropyridin-3-yl}carbonyl)amino]-N,N,N-trimethylethanaminium acetate]
771 pM |  | Cc1c(-c2ccnn2-c2ccc(C#N)cc2)cc(C(=O)NCCCC[N+]2(C)CCCC2)c(=O)n1-c1cccc(C(F)(F)F)c1 [Example 2, 1-{-4-[({5-[1-(4-cyanophenyl)-1H-pyrazol-5-yl]-6-methyl-2-oxo-1-[3-(trifluoromethyl)phenyl]-1,2-dihydropyridin-3-yl}carbonyl)amino]butyl}-1-methylpyrrolidinium acetate]
